Test results as given in ChEMBL document CHEMBL1817595, “Design, synthesis, biological evaluation and X-ray crystal structure of novel classical 6,5,6-tricyclic benzo[4,5]thieno[2,3-d]pyrimidines as dual thymidylate synthase and dihydrofolate reductase inhibitors” (Bioorg Med Chem, 2011).

How the values were obtained:
[1] = molecular target: T1, Dihydrofolate reductase (Escherichia coli, UniProt P0ABQ4); assay: Inhibition of Escherichia coli DHFR by spectrophotometry
T1 sequence (P0ABQ4 whole entry): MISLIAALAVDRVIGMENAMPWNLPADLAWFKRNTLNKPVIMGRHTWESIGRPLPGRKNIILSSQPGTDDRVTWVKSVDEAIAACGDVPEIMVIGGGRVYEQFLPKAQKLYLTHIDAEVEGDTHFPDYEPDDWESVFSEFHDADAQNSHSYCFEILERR

[2] = molecular target: T2, Bifunctional dihydrofolate reductase-thymidylate synthase (Toxoplasma gondii, UniProt Q07422); assay: Inhibition of Toxoplasma gondii TS assessed as oxidation of tetrahydrofolate to dihydrofolate after 2 to 12 mins by spectrophotometry
T2 sequence (Q07422 whole entry): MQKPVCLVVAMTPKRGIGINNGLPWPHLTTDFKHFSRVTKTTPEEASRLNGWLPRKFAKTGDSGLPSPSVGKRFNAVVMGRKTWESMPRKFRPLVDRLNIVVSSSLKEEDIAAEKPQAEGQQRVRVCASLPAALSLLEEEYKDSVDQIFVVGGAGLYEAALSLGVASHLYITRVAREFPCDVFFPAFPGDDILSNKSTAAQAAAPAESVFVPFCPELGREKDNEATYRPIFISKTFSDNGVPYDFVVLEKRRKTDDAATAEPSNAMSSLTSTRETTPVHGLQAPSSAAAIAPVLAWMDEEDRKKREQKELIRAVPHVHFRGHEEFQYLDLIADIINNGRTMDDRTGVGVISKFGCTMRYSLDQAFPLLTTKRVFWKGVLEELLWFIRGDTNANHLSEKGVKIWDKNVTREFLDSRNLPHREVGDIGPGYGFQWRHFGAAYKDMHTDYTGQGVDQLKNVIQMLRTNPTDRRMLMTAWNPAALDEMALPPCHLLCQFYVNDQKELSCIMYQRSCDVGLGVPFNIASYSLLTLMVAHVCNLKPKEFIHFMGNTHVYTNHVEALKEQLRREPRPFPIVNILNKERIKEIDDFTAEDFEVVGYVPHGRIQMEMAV

[3] = molecular target: T3, Thymidylate synthase (Homo sapiens, UniProt P04818); assay: Inhibition of human TS assessed as oxidation of tetrahydrofolate to dihydrofolate after 2 to 12 mins by spectrophotometry
Target sequence in this assay (P04818 whole entry): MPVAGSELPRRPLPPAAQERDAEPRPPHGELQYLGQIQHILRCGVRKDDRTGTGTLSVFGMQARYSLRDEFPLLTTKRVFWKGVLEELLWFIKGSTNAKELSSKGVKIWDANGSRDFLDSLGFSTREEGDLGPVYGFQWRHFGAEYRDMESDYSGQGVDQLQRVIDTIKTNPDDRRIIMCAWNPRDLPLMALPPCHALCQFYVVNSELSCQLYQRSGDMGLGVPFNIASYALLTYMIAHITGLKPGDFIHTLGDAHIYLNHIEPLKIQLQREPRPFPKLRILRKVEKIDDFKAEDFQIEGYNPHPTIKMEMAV

[4] = molecular target: T3, Thymidylate synthase; assay: Ratio of premetrexed IC50 to compound IC50 for human TS
Target sequence in this assay (P04818 2-313 limits assumed): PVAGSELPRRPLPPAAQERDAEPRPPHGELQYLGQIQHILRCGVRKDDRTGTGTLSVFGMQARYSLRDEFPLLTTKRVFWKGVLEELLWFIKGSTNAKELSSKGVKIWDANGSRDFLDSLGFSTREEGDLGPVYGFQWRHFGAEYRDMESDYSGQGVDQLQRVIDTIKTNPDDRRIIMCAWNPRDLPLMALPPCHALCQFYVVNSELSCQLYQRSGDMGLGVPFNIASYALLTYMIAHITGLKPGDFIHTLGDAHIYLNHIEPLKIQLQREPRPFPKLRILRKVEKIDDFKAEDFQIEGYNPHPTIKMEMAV

[5] = molecular target: T4, Dihydrofolate reductase (Homo sapiens, UniProt P00374); assay: Inhibition of human DHFR by spectrophotometry
T4 sequence (P00374 whole entry): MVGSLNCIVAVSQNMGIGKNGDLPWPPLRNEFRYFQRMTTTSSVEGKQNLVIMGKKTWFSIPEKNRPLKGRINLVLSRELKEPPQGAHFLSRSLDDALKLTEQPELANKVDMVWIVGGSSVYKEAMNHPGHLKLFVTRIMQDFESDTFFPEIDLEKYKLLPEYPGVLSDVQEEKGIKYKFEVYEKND

[6] = molecular target: T2, Bifunctional dihydrofolate reductase-thymidylate synthase; assay: Inhibition of Toxoplasma gondii DHFR by spectrophotometry
[7] = molecular target: T5, Thymidylate synthase (EC 2.1.1.45) (TS) (TSase) (Escherichia coli, UniProt E2QDN0); assay: Inhibition of Escherichia coli TS assessed as oxidation of tetrahydrofolate to dihydrofolate after 2 to 12 mins by spectrophotometry
T5 sequence (E2QDN0 whole entry): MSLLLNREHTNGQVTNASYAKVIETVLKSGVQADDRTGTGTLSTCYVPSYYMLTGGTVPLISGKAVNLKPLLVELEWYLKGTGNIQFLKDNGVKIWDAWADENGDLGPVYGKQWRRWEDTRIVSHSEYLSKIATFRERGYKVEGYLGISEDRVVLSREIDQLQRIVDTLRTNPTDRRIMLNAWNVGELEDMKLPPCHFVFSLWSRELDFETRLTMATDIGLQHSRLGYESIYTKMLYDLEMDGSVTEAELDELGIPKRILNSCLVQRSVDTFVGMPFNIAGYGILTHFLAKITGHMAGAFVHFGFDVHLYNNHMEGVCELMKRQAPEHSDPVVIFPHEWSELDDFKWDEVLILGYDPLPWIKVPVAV

Structure (SMILES)	IC50 [1]	IC50 [2]	IC50 [3]	Ratio IC50 [4]	IC50 [5]	IC50 [6]	IC50 [7]
Nc1nc2sc3cccc(CNc4ccc5c(c4)CN([C@@H](CCC(=O)O)C(=O)O)C5=O)c3c2c(=O)[nH]1	400 nM	170 nM	34 nM	50	100 nM	10 nM	50 nM
Nc1nc2sc3cccc(CNc4ccc(C(=O)N[C@@H](CCC(=O)O)C(=O)O)cc4)c3c2c(=O)[nH]1	400 nM	140 nM	68 nM	50	90 nM	20 nM	17 nM
Cc1nc2sc3cccc(CNc4ccc(C(=O)N[C@@H](CCC(=O)O)C(=O)O)cc4)c3c2c(=O)[nH]1	15000 nM	1700 nM	260 nM	50	> 20000 nM	1400 nM	820 nM
Cc1[nH]c2nc(N)[nH]c(=O)c2c1Sc1ccc(C(=O)N[C@@H](CCC(=O)O)C(=O)O)cc1	22000 nM	90 nM				230 nM	
Nc1nc2[nH]cc(CCc3ccc(C(=O)N[C@@H](CCC(=O)O)C(=O)O)cc3)c2c(=O)[nH]1 [PEMETREXED]							76000 nM
Cc1nc2ccc3ccc(CNc4ccc5c(c4)CN([C@@H](CCC(=O)O)C(=O)O)C5=O)cc3c2c(=O)[nH]1 [OSI-7904]	20000 nM	27 nM			> 20000 nM	710 nM	23 nM
Cc1nc2sc3cccc(CNc4ccc5c(c4)CN([C@@H](CCC(=O)O)C(=O)O)C5=O)c3c2c(=O)[nH]1	> 20000 nM	3700 nM	800 nM	50	> 20000 nM	1800 nM	850 nM
